Results taken from article PMC10980263, “Cryo-EM structures of the human NaS1 and NaDC1 transporters revealed the elevator transport and allosteric regulation mechanism” (Science Advances, 2024).
Substitutions are numbered along the chain they refer to.

Tests used:
Format in all cases: binding
NaDC1 [1] = biological target: T1, NaDC1 (Homo sapiens, UniProt Q13183, I550V); assay: cryo-EM structure ([…] Å); settings: 10 mM sodium citrate; substrate site; Na+ at Na1 and Na2
T1 construct: gene SLC13A2; full length, homodimer; N-terminal FLAG purified from HEK293F (structures, natural variant I550V); GFP and FLAG tagged in HEK293T for currents
T1 sequence (Q13183 1-592 I550V): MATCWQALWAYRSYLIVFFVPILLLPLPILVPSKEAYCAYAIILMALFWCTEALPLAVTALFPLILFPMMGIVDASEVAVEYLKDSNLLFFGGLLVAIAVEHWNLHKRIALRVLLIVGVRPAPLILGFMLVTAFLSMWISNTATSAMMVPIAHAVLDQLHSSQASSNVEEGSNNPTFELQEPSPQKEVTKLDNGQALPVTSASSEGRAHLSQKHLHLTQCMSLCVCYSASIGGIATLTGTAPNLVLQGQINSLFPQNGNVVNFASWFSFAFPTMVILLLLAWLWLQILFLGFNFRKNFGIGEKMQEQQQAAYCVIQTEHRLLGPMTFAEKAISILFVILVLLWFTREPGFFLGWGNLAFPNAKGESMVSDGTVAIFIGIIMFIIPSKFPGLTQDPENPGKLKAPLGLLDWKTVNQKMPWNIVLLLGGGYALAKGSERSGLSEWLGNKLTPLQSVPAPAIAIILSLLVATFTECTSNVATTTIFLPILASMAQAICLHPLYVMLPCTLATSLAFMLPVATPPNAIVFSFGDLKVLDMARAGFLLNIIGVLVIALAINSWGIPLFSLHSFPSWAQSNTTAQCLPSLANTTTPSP

NaDC1 [2] = biological target: T2, NaDC1 (Homo sapiens, UniProt Q13183, S140A); assay: CD thermal melting at […] nm; settings: absolute Tm in presence of citrate, not a shift
T2 construct: gene SLC13A2; full length, homodimer; N-terminal FLAG purified from HEK293F (structures, natural variant I550V); GFP and FLAG tagged in HEK293T for currents
T2 sequence (Q13183 1-592 S140A): T1 sequence (Q13183 1-592 I550V) with S140A, V550I

NaDC1 [3] = biological target: T3, NaDC1 (Homo sapiens, UniProt Q13183, N141A); assay: CD thermal melting at […] nm; settings: absolute Tm in presence of citrate, not a shift
T3 construct: gene SLC13A2; full length, homodimer; N-terminal FLAG purified from HEK293F (structures, natural variant I550V); GFP and FLAG tagged in HEK293T for currents
T3 sequence (Q13183 1-592 N141A): T1 sequence (Q13183 1-592 I550V) with N141A, V550I

Tm (NaDC1 [2]): 57.1 ± 0.7 °C
Tm (NaDC1 [3]): 61.3 ± 0.5 °C
Structure (SMILES): O=C(O)CC(O)(CC(=O)O)C(=O)O [citrate]
cryo-EM structure (2.7 Å) (NaDC1 [1]): we discern two sodium ions and one citrate molecule distinctly situated within a single protomer
